What was measured:
Experiment in all cases: relative viability (nuclei count vs DMSO), 5 days (fraction); higher = more cells survive
VX-11e + AZD7762 = compound: CC1=CN=C(N=C1C2=CNC(=C2)C(=O)N[C@H](CO)C3=CC(=CC=C3)Cl)NC4=C(C=C(C=C4)F)Cl [VX-11e] + NC(=O)Nc1cc(-c2cccc(F)c2)sc1C(=O)N[C@H]1CCCNC1 [AZD7762] (partner 0.2 µM)
Method in brief: (§1)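 Relative viability was taken as the ratio of nuclei in treated wells to nuclei in vehicle wells. Lung cancer cell lines in 1536-well plates received compounds by pin tool one day after seeding, either one drug alone or a fixed anchor-drug dose plus five library-drug doses (not always all listed) in √10 steps. Nuclei were counted on 4× images after 5 days of treatment, and values are medians of duplicate plates.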

VX-11e + Trametinib = compound: CC1=CN=C(N=C1C2=CNC(=C2)C(=O)N[C@H](CO)C3=CC(=CC=C3)Cl)NC4=C(C=C(C=C4)F)Cl [VX-11e] + CC(=O)Nc1cccc(-n2c(=O)n(C3CC3)c(=O)c3c(Nc4ccc(I)cc4F)n(C)c(=O)c(C)c32)c1 [Trametinib] (partner 0.02 µM)
Method in brief: as §1

VX-11e + Tozasertib = compound: CC1=CN=C(N=C1C2=CNC(=C2)C(=O)N[C@H](CO)C3=CC(=CC=C3)Cl)NC4=C(C=C(C=C4)F)Cl [VX-11e] + Cc1cc(Nc2cc(N3CCN(C)CC3)nc(Sc3ccc(NC(=O)C4CC4)cc3)n2)n[nH]1 [Tozasertib] (partner 0.1 µM)
Method in brief: as §1

VX-11e = compound: CC1=CN=C(N=C1C2=CNC(=C2)C(=O)N[C@H](CO)C3=CC(=CC=C3)Cl)NC4=C(C=C(C=C4)F)Cl [VX-11e]
Method in brief: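 Viability here means nuclei in treated wells divided by nuclei in vehicle wells, reported as the median across plates. Only plates with control CV below 25% and at least one doubling passed. Lung cancer cell lines in 1536-well plates were exposed to five √10-spaced library-drug doses for 5 days and counted from 4× Hoechst images in MetaXpress.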

Cell Line	relative viability (VX-11e + AZD7762; first compound 0.04 µM)	relative viability (VX-11e + AZD7762; first compound 0.1265 µM)	relative viability (VX-11e + AZD7762; first compound 0.4 µM)	relative viability (VX-11e + AZD7762; first compound 1.265 µM)	relative viability (VX-11e + AZD7762; first compound 4 µM)	relative viability (VX-11e + Trametinib; first compound 0.04 µM)	relative viability (VX-11e + Trametinib; first compound 0.1265 µM)	relative viability (VX-11e + Trametinib; first compound 0.4 µM)	relative viability (VX-11e + Trametinib; first compound 1.265 µM)	relative viability (VX-11e + Trametinib; first compound 4 µM)	relative viability (VX-11e + Tozasertib; first compound 0.04 µM)	relative viability (VX-11e + Tozasertib; first compound 0.1265 µM)	relative viability (VX-11e + Tozasertib; first compound 0.4 µM)	relative viability (VX-11e + Tozasertib; first compound 1.265 µM)	relative viability (VX-11e + Tozasertib; first compound 4 µM)	relative viability (VX-11e; 0.04 µM)	relative viability (VX-11e; 0.1265 µM)	relative viability (VX-11e; 0.4 µM)	relative viability (VX-11e; 1.265 µM)	relative viability (VX-11e; 4 µM)
HARA	0.575	0.391	0.258	0.281	0.306	0.589	0.636	0.64	0.209	0.244	0.106	0.118	0.119	0.0971	0.0712	0.969	0.939	0.832	0.427	0.326
H3255	0.745	0.834	0.859	0.923	0.825	0.678	0.635	0.425	0.443	0.33	0.732	0.698	0.562	0.595	0.724	1.03	0.925	0.896	0.911	0.875
UMC-11	–	–	–	–	–	0.563	0.626	0.563	0.357	0.551	0.185	0.201	0.206	0.182	0.19	0.757	0.909	0.962	0.791	0.889
NCI-H2170	0.758	0.89	0.298	0.632	0.821	0.805	0.913	0.89	0.854	0.819	0.81	0.687	0.734	0.69	0.686	0.862	0.938	0.871	0.913	0.949
NCI-H1792	–	0.623	–	0.413	0.0597	–	0.392	–	0.322	0.102	–	–	–	–	–	0.604	0.852	0.236	0.534	0.174
NCI-H661	–	–	–	–	–	0.568	0.542	0.476	0.506	0.376	0.323	0.354	0.349	0.382	0.379	1.01	1.02	0.947	1.04	0.724
NCI-H2023	–	–	–	–	–	0.601	0.495	0.391	0.292	0.171	0.279	0.161	0.161	0.142	0.0967	0.941	0.957	0.557	0.569	0.445
SK-LU-1	–	–	–	–	–	0.427	0.332	0.179	0.25	0.274	0.348	0.298	–	0.338	0.194	1.09	0.928	0.831	0.911	0.346
NCI-H1563	–	–	–	–	–	–	–	–	–	–	–	–	–	–	–	0.983	0.916	0.908	0.944	0.82
SK-MES-1	–	–	–	–	–	0.566	0.486	0.399	0.338	0.27	0.884	0.873	0.844	0.908	0.376	1.06	0.921	0.886	0.748	0.35
Calu-6	–	–	–	–	–	–	–	–	–	–	–	–	–	–	–	1.08	0.978	0.975	0.513	0.163
NCI-H1299	–	–	–	–	–	–	–	–	–	–	–	–	–	–	–	1.01	0.981	1.03	1.03	0.49
NCI-H1650	–	–	–	–	–	0.76	0.589	0.562	0.553	0.397	0.426	0.309	–	0.261	0.203	0.866	0.886	0.521	0.668	0.652
SW 1573	–	–	–	–	–	–	0.567	0.498	0.401	0.328	0.237	0.21	0.224	0.154	0.11	0.989	0.993	0.704	0.778	0.487
IA-LM	–	–	–	–	–	–	–	–	–	–	–	–	–	–	–	0.767	0.916	0.913	0.468	0.129
NCI-H1703	–	–	0.141	0.121	0.122	–	–	–	–	–	–	–	–	–	–	0.828	1.11	0.632	0.961	0.74
NCI-H520	–	–	–	–	–	0.647	0.668	0.528	0.481	0.22	0.464	0.401	0.397	0.468	0.4	0.872	1.06	0.874	1.25	0.898
NCI-H2009	–	–	–	–	–	0.22	0.209	0.247	0.162	0.169	0.714	0.64	0.591	0.4	0.171	1.12	0.962	0.932	0.481	0.269
ABC-1	0.988	0.785	0.711	0.779	0.572	–	–	–	–	–	0.137	0.219	0.175	0.123	0.188	0.83	0.888	0.938	0.83	0.723
COR-L23	–	–	–	–	–	0.481	0.441	0.323	0.328	0.188	0.157	0.142	0.138	0.124	0.127	1.17	0.92	0.975	0.778	0.358
COR-L 105	–	–	–	–	–	0.425	0.459	0.369	0.423	0.403	0.341	0.342	0.367	0.721	0.268	0.845	0.894	0.845	0.516	0.383
NCI-H2228	–	–	–	–	–	0.518	0.466	0.0868	0.273	0.128	0.248	0.202	–	0.149	0.115	1.13	0.954	0.407	0.776	0.428

— the supplement of paper PMC10307832
